# Legend:
# [1] = molecular target: T1, 5-hydroxytryptamine receptor 1A (Homo sapiens) (UniProt P08908); assay: Partial agonist activity at human 5-HT1AR expressed in CHO-K1 cells assessed as increase in cAMP accumulation at 10^-6 M by chemiluminescence-based assay relative to serotonin; format: functional, cell-based
# T1 sequence (whole entry): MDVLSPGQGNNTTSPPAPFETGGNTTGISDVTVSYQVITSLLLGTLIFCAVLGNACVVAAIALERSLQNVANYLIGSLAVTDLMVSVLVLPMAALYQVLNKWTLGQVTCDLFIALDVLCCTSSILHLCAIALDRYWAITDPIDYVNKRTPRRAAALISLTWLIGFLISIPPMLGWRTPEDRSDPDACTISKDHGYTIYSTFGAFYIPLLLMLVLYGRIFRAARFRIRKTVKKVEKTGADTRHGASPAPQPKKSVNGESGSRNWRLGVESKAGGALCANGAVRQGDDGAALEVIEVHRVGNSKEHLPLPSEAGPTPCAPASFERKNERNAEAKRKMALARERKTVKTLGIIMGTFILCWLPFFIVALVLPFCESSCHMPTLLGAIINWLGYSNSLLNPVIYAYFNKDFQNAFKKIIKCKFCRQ
# [2] = Drug level in Wistar rat plasma at 3 mg/kg, ip measured after 15 mins by LC-MS/MS analysis; format: ADME, organism-based
# [3] = Ratio of drug level in brain to plasma in Wistar rat at 3 mg/kg, ip measured after 15 mins by LC-MS/MS analysis; format: ADME, organism-based; settings: read-out: BPR
# Cavia porcellus [4] = assay: Cardiotoxicity in guinea pig assessed as effect on QT interval time at 5 mg/kg, ip measured after 20 mins by ECG analysis (reference value: 127.6 to 131.2 milliseconds); format: toxicity, organism-based; settings: in vivo
# Cavia porcellus [5] = assay: Cardiotoxicity in guinea pig assessed as effect on QT interval time at 5 mg/kg, ip measured after 50 mins by ECG analysis (reference value: 127.6 to 131.2 milliseconds); format: toxicity, organism-based; settings: in vivo
# Cavia porcellus [6] = assay: Cardiotoxicity in guinea pig assessed as effect on PR interval time at 5 mg/kg, ip measured after 10 mins by ECG analysis (reference value: 58.8 to 63.8 milliseconds); format: toxicity, organism-based; settings: in vivo
# Cavia porcellus [7] = assay: Cardiotoxicity in guinea pig assessed as effect on PR interval time at 5 mg/kg, ip measured after 20 mins by ECG analysis (reference value: 58.8 to 63.8 milliseconds); format: toxicity, organism-based; settings: in vivo
# Cavia porcellus [8] = assay: Cardiotoxicity in guinea pig assessed as effect on PR interval time at 5 mg/kg, ip measured after 40 mins by ECG analysis (reference value: 58.8 to 63.8 milliseconds); format: toxicity, organism-based; settings: in vivo
# Cavia porcellus [9] = assay: Cardiotoxicity in guinea pig assessed as effect on PR interval time at 5 mg/kg, ip measured after 60 mins by ECG analysis (reference value: 58.8 to 63.8 milliseconds); format: toxicity, organism-based; settings: in vivo, 1 h
# Cavia porcellus [10] = assay: Cardiotoxicity in guinea pig assessed as effect on QRS interval time at 5 mg/kg, ip measured after 20 mins by ECG analysis (reference value: 26.2 to 31.6 milliseconds); format: toxicity, organism-based; settings: in vivo
# Cavia porcellus [11] = assay: Cardiotoxicity in guinea pig assessed as effect on QRS interval time at 5 mg/kg, ip measured after 30 mins by ECG analysis (reference value: 26.2 to 31.6 milliseconds); format: toxicity, organism-based; settings: in vivo, 0.5 h
# Cavia porcellus [12] = assay: Cardiotoxicity in guinea pig assessed as effect on QRS interval time at 5 mg/kg, ip measured after 50 mins by ECG analysis (reference value: 26.2 to 31.6 milliseconds); format: toxicity, organism-based; settings: in vivo
# Cavia porcellus [13] = assay: Cardiotoxicity in guinea pig assessed as effect on QRS interval time at 5 mg/kg, ip measured after 70 mins by ECG analysis (reference value: 26.2 to 31.6 milliseconds); format: toxicity, organism-based; settings: in vivo
# Cavia porcellus [14] = assay: Cardiotoxicity in guinea pig assessed as effect on RR interval time at 5 mg/kg, ip measured after 10 mins by ECG analysis (reference value: 208.4 to 238.4 milliseconds); format: toxicity, organism-based; settings: in vivo
# Cavia porcellus [15] = assay: Cardiotoxicity in guinea pig assessed as effect on RR interval time at 5 mg/kg, ip measured after 50 mins by ECG analysis (reference value: 208.4 to 238.4 milliseconds); format: toxicity, organism-based; settings: in vivo
# Cavia porcellus [16] = assay: Cardiotoxicity in guinea pig assessed as effect on QTc interval time at 5 mg/kg, ip measured after 10 mins by ECG analysis (reference value: […] to […] milliseconds); format: toxicity, organism-based; settings: in vivo
# Cavia porcellus [17] = assay: Cardiotoxicity in guinea pig assessed as effect on QTc interval time at 5 mg/kg, ip measured after 20 mins by ECG analysis (reference value: […] to […] milliseconds); format: toxicity, organism-based; settings: in vivo
# Cavia porcellus [18] = assay: Cardiotoxicity in guinea pig assessed as effect on QTc interval time at 5 mg/kg, ip measured after 40 mins by ECG analysis (reference value: […] to […] milliseconds); format: toxicity, organism-based; settings: in vivo
# Cavia porcellus [19] = assay: Cardiotoxicity in guinea pig assessed as effect on QTc interval time at 5 mg/kg, ip measured after 50 mins by ECG analysis (reference value: […] to […] milliseconds); format: toxicity, organism-based; settings: in vivo
# Cavia porcellus [20] = assay: Cardiotoxicity in guinea pig assessed as effect on frequence of heart rate at 5 mg/kg, ip measured after 10 mins by ECG analysis (reference value: 262 to 296 /min); format: toxicity, organism-based; settings: in vivo
# Cavia porcellus [21] = assay: Cardiotoxicity in guinea pig assessed as effect on frequence of heart rate at 5 mg/kg, ip measured after 20 mins by ECG analysis (reference value: 262 to 296 /min); format: toxicity, organism-based; settings: in vivo
# Cavia porcellus [22] = assay: Cardiotoxicity in guinea pig assessed as effect on frequence of heart rate at 5 mg/kg, ip measured after 40 mins by ECG analysis (reference value: 262 to 296 /min); format: toxicity, organism-based; settings: in vivo
# Cavia porcellus [23] = assay: Cardiotoxicity in guinea pig assessed as effect on frequence of heart rate at 5 mg/kg, ip measured after 50 mins by ECG analysis (reference value: 262 to 296 /min); format: toxicity, organism-based; settings: in vivo
# Cavia porcellus [24] = assay: Cardiotoxicity in guinea pig assessed as effect on frequence of heart rate at 5 mg/kg, ip measured after 60 mins by ECG analysis (reference value: 262 to 296 /min); format: toxicity, organism-based; settings: in vivo, 1 h
# Cavia porcellus [25] = assay: Cardiotoxicity in guinea pig assessed as effect on frequence of heart rate at 5 mg/kg, ip measured after 70 mins by ECG analysis (reference value: 262 to 296 /min); format: toxicity, organism-based; settings: in vivo
# Rattus norvegicus [26] = assay: Cardiotoxicity in Wistar rat assessed as effect on blood pressure at 2 to 5 mg/kg, iv; format: toxicity, organism-based; settings: in vivo
# Cytochrome P450 2C9 = Cytochrome P450 2C9 (Homo sapiens, UniProt P11712); assay: Inhibition of human supersome CYP2C9 using diclofenac as substrate assessed as diclofenac 4'-hydroxylation after 30 mins by HPLC-UV detection; format: ADME
# Cytochrome P450 2C9, sequence (P11712 whole entry): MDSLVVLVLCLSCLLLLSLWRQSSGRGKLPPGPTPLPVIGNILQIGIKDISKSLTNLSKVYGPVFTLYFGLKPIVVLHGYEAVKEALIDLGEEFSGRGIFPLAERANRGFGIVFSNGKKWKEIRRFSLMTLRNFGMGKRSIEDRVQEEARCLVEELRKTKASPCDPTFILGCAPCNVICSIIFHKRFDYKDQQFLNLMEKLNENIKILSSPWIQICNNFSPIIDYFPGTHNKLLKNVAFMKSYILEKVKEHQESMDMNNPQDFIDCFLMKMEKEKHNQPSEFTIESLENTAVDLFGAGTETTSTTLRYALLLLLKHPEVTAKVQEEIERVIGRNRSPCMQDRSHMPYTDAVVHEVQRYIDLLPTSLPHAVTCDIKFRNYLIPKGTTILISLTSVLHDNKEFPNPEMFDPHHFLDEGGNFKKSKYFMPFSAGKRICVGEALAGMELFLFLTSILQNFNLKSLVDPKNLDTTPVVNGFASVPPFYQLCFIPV
# Cytochrome P450 3A4 = Cytochrome P450 3A4 (Homo sapiens, UniProt P08684); assay: Inhibition of human supersome CYP3A4 using testosterone as substrate assessed as testosterone 6beta-hydroxylation after 30 mins by HPLC-UV detection; format: ADME
# Cytochrome P450 3A4, sequence (P08684 whole entry): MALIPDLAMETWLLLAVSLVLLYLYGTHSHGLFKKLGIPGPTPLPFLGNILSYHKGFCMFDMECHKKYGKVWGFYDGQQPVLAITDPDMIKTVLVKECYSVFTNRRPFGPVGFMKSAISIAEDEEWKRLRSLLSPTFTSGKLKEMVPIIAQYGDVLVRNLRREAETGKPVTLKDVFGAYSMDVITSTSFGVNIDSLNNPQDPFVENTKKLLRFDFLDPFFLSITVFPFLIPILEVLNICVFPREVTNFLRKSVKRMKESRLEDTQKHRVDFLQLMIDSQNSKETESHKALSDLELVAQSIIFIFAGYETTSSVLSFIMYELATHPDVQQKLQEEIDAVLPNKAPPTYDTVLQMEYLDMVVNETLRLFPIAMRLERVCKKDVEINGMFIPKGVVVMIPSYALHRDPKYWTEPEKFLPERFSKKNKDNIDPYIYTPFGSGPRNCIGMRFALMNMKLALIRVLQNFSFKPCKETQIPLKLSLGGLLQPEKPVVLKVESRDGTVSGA
# Rattus norvegicus [27] = organism: Rattus norvegicus; assay: animal or person; settings: Sprague-Dawley, ip, read-out: MED
# Description: Antipsychotic activity in ip dosed Sprague-Dawley rat assessed as reduction in PCP-induced hyper-locomotion pretreated for 60 mins followed by PCP addition measured for 30 mins starting 15 min after rat reintroduction to auto-tracks
# Rattus norvegicus [28] = organism: Rattus norvegicus; assay: animal or person; settings: Sprague-Dawley, ip, read-out: MED; remark: listed apart in the source
# Description: Reversal of ketamine-induced working social withdrawal in ip dosed Sprague-Dawley rat pretreated for 60 mins followed by ketamine administration
Structure (SMILES),Activity [1],concentration at 0.25 h [2],Kp at 0.25 h [3],Time (Cavia porcellus [4]),Time (Cavia porcellus [5]),Time (Cavia porcellus [6]),Time (Cavia porcellus [7]),Time (Cavia porcellus [8]),Time (Cavia porcellus [9]),Time (Cavia porcellus [10]),Time (Cavia porcellus [11]),Time (Cavia porcellus [12]),Time (Cavia porcellus [13]),Time (Cavia porcellus [14]),Time (Cavia porcellus [15]),Time (Cavia porcellus [16]),Time (Cavia porcellus [17]),Time (Cavia porcellus [18]),Time (Cavia porcellus [19]),Activity (Cavia porcellus [20]),further results
O=S(=O)(c1cncc2ccccc12)N1CCC[C@H]1CCN1CCN(c2cccc3sccc23)CC1,40.6%,188 nM,1.69,129 ms,124.8 ms,62.8 ms,63.8 ms,63.4 ms,63.4 ms,31.6 ms,32.4 ms,31.6 ms,30.8 ms,236.6 ms,220 ms,267 ms,265 ms,263.4 ms,265 ms,263 min⁻¹,Activity (Cavia porcellus [21]): 256 min⁻¹; Activity (Cavia porcellus [22]): 263 min⁻¹; Activity (Cavia porcellus [23]): 270 min⁻¹; Activity (Cavia porcellus [24]): 276 min⁻¹; Activity (Cavia porcellus [25]): 271 min⁻¹; Activity (Rattus norvegicus [26]): Non-Toxic; IC50 (Cytochrome P450 2C9): > 100 µM; IC50 (Cytochrome P450 3A4): 10 µM; minimal effective dose (Rattus norvegicus [27]): 1 mg/kg; minimal effective dose (Rattus norvegicus [28]): 1 mg/kg
O=S(=O)(c1cncc2ccccc12)N1CCC[C@H]1CCN1CCN(c2nsc3ccccc23)CC1,5.3%,249 nM,0.59,121.6 ms,121.6 ms,59 ms,59.6 ms,61 ms,63.2 ms,26 ms,26.8 ms,27 ms,27.8 ms,202 ms,210.6 ms,272.2 ms,269.6 ms,274.2 ms,266 ms,304 min⁻¹,Activity (Cavia porcellus [21]): 296 min⁻¹; Activity (Cavia porcellus [22]): 288 min⁻¹; Activity (Cavia porcellus [23]): 288 min⁻¹; Activity (Cavia porcellus [24]): 288 min⁻¹; Activity (Cavia porcellus [25]): 287 min⁻¹; Activity (Rattus norvegicus [26]): Non-Toxic; IC50 (Cytochrome P450 2C9): 100 µM; IC50 (Cytochrome P450 3A4): 23 µM; minimal effective dose (Rattus norvegicus [27]): 1 mg/kg; minimal effective dose (Rattus norvegicus [28]): 3 mg/kg

# Reference: ChEMBL document CHEMBL4229332, “Novel multi-target azinesulfonamides of cyclic amine derivatives as potential antipsychotics with pro-social and pro-cognitive effects” (Eur J Med Chem, 2018)
